From patent publication US11421001B2, “Template-fixed peptidomimetics” (UNIVERSITAET ZUERICH, priority 2007, dated 2022)
Positions of bridges follow the written chain, without caps; N, C: chain ends. Non-standard residues stand in square brackets, D forms with d. Residues, ends and D or L forms follow the SMILES beside them. Dab = NCC[C@H](N)C(=O)O

How the values were obtained:
human CXCR4 = target: T1, human CXCR4 (Homo sapiens, UniProt P61073); assay: Ca2+ assay: CXCR4-antagonizing activity; format: cell-based; conditions: mouse pre-B cell line 300-19 transfected with human CXCR4; calcium mobilization induced by 10 nM SDF-1; read-out: IC50 (nM) Ca2+ assay
T1 construct: expressed in transfected cells; host or cells: mouse pre-B cell line 300-19
Protocol: 2.2. Ca^2+− Assay: CXCR4-Antagonizing Activity of the Peptides.
Increases in intracellular calcium were monitored using a Flexstation 384 (Molecular Devices, Sunnyvale, Calif.) to assay the peptides for CXCR4 antagonism in a mouse pre-B cell line 300-19 stably transfected with human CXCR4 [see references 1, 2 and 3, below]. The cells were batch loaded with the Calcium 3 Assay kit (Molecular Devices) in assay buffer (Hanks Balanced salt solution, HBSS, 20 mM HEPES, pH 7.4, 0.1% BSA) for 1 h at room temperature and then 200,000 labeled cells were dispensed into black 96 well assays plates (Costar No. 3603). A 20-fold concentrated solution of peptide in assay buffer was added to the cells and the whole plate was centrifuged to settle the cells to the bottom of the wells. Calcium mobilization induced by 10 nM stromal-derived factor-1 (SDF-1) was measured in the Flexstation 384 (excitation, 485 […]) for 90 seconds. A maximal change in fluorescence response above baseline was used to calculate antagonist activity. The data for dose response curves (antagonist concentration versus % maximum response) were fitted to a four parameter logistic equation using SoftmaxPro 4.6 (Molecular Devices), from which IC50% values were calculated.

FIGS-Assay = format: cell-based; conditions: 48 hours of co-cultivation; ONPG read out at 405 nm
Protocol: The assay was performed according to ref. 5, below. Stock dilutions of the peptides (10 μM) were prepared by dissolving in […] at room temperature. Stock solutions were kept at +4° C., light protected. Working dilutions were prepared extemporaneously by serial dilution in Phosphate Buffered Saline (PBS) and added in a final volume of 10 μl directly to the cell cultures. After 48 hours of co-cultivation the cultures were rinsed with PBS and then exposed to glutaraldehyde/formaldehyde (0.2%/2%) in PBS for five minutes. For photometric quantification the fixed cultures were subsequently incubated with ortho-nitro-phenyl-galactopyranoside (ONPG) as a β-galactosidase substrate, which was enzymatically converted into the chromophore ortho-nitrophenol (ONP). The read out is directly obtained by measuring optical density of wells at 405 nm in an iEMS 96well-plate reader.
‘CCR5’ cells were cultured in DMEM medium with […] glucose, 10% fetal bovine serum (FBS), supplemented with 50 U/ml Penicillin and 50 μg/ml Streptomycin (Pen/Strept.). Hut/4-3 cells were maintained in RPMI medium, 10% FBS, supplemented with Pen/Strept. and 10 mM HEPES. HELA cells and CCRF-CEM cells were maintained in RPMI1640 plus 5% FBS, Pen/Strept and 2 mM L-Glutamine. Cos-7 cells were grown in DMEM medium with […] glucose supplemented with 10% FCS, Pen/Strept. and 2 mM L-Glutamine. […]

[1] = system: CCRF-CEM cells, gradient of SDF-1; assay: Chemotactic assay (cell migration assay); format: cell-based; conditions: 1 nM SDF-1, 4 hours
Protocol: 2.7. Chemotactic Assay (Cell Migration Assay)
The chemotactic response of CCRF-CEM cells to a gradient of stromal cell-derived factor 1α (SDF-1) was measured using disposable assay plates from Neuroprobe (5μ pore size) (Gaithersburg, Md.), according to the manufacturer's directions and references therein [especially ref. 8, below]. Briefly, one […] flask was washed once with Dubecco's phosphate buffered saline (DPBS), and trypsinized for 10 minutes or until cells had lifted. The trypsin was neutralized by the addition of fresh medium containing serum and the cells were pelleted, washed once in DPBS, and resuspended at 1-0.5×10^7 cells/ml in RPMI+0.5% bovine serum albumin (BSA). 45 μl of cell suspension were mixed with 5 μl of 10-fold concentrated PEM peptide diluted in the same assay medium. 35 μl of this mixture were applied to the top of the assay filter. […] The optical absorbance at 595 nm (ABS595) was read using a Tecan Genios plate reader with Magellan software. The number of cells migrated was determined by comparing ABS595 values against a standard curve generated with a known number of cells in the assay plate and were plotted against SDF-1 concentration to obtain a sigmoidal curve and to determine the IC50 values. The values for IC50 were determined using the Trendline function in Microsoft Excel by fitting a logarithmic curve to the averaged datapoints.

[2] = Plasma stability, rat plasma; format: in vitro ADME; conditions: read-out: Stability rat Plasma t1/2
[3] = Maximum tolerated dose in mice; format: in vivo, mouse; conditions: CD1 mice, 120 mg/kg bolus, i.v, ip and sc.
Protocol: 3.1. Maximum Tolerated Dose in Mice
a) The compound of Example 1, dispersed in Water for Injection or 0.9% physiological saline), was administered, in the preliminary study, by i.v. injection at dose levels of 35, 50, 70, 85, 100, 150, 250 or 500 mg/kg to groups consisting of one male and one female mouse (Crl:CD1(ICR)). In addition, two groups comprising two male and two female mice received dose levels of 90 and 100 mg/kg, respectively, and the 50 mg/kg dose level was repeated in a group comprising one male and one female.
b) Maximum tolerated dose studies (MTD) carried out with the compound of Example 2 using CD1 mice (3 mice/group) and was performed using i.v, ip and sc. administration.

T1 sequence (P61073 whole entry): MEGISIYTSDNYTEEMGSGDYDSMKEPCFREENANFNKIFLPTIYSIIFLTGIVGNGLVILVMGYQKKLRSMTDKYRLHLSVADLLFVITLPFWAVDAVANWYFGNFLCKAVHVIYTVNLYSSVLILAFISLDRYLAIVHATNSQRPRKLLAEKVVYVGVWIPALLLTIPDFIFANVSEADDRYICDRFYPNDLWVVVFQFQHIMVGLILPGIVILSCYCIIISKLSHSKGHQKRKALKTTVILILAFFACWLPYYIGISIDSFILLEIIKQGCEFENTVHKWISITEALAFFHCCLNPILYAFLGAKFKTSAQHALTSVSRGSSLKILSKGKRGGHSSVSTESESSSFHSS

Q: For `C[C@@H]1NC(=O)[C@H](CO)NC(=O)[C@@H]2CSSC[C@H](NC(=O)[C@H](Cc3ccc(O)cc3)NC(=O)[C@H](CCCNC(=N)N)NC(=O)[C@H](CCN)NC(=O)[C@H]3CCCN3C1=O)C(=O)N[C@@H](Cc1ccc(O)cc1)C(=O)N[C@@H](CCC(N)=O)C(=O)N[C@@H](CCCCN)C(=O)N1CCC[C@@H]1C(=O)N1CCC[C@H]1C(=O)N[C@@H](Cc1ccc(O)cc1)C(=O)N[C@@H](Cc1c[nH]cn1)C(=O)N[C@@H](Cc1ccc(O)cc1)C(=O)N2` [Example 2] (cyclo(YHYCSA[dP][Dab]RYCYQK[dP]P); disulfide 4-11), which IC50 (human CXCR4) is on record?
A: 4.1 nM

Q: And the IC50 (FIGS-Assay)?
A: 24.7 nM

Q: And the IC50 [1]?
A: 0.5 µM

Q: And the half-life at 10 µM [2]?
A: > 5 h

Q: And the “survival at highest dose tested” value [3]?
A: all animals survived

Q: What about the “symptoms at highest dose tested” value [3] of the same compound?
A: only mild symptoms were observed
